Here are results for one compound from patent publication US20240299373A1, “IMPROVED USE OF TRADIPITANT IN MOTION SICKNESS” (Vanda Pharmaceuticals Inc., priority 2023, published 2024).

Where only a bound is given, the exact number is not on record here.

The test system of assay [1] is panel of 74 other receptors, enzymes, and ion channels. Description: Selectivity panel binding. The settings on record: test concentration of 1 μM. From the text: Tradipitant is a selective neurokinin-1 (NK-1) receptor antagonist. […] By 3 different measures, tradipitant is also a potent centrally active NK-1 antagonist in vivo.
Another assay deals with T1, NK-1 receptor (Meriones unguiculatus, UniProt Q5DUB1).
T1 construct: centrally acting NK-1 receptor antagonist in vivo in the gerbil; from tissue; host or cells: brain of living Mongolian gerbils
The assay can be described thus: NK-1 agonist (GR73632, icv)-induced foot-tapping behavior in gerbils. The settings on record: gerbil, 0.1 mg/kg po. Type of assay: in vivo. On the procedure: Male Mongolian gerbils (Harlan Sprague Dawley, Indianapolis, IN) weighing 26 to 40 grams are administered the selective neurokinin-1 receptor agonist GR73632 (3 pmol) via direct, vertical, free-hand intracerebroventricular (icy) injection to a depth of 4.5 mm below bregma with a cuffed 27-gauge needle attached to a 50 μl Hamilton syringe. Immediately after injection, animals are placed individually into isolated chambers with pressure-sensitive velocimeter platform floors (San Diego Instruments acoustic startle apparatus) that detect and quantify vibration. The San Diego Instruments “SR” DOS-based computer program is used on a PC to record the number of foot-taps over the following 6 to 10 minutes, beginning 30 seconds after the floor is lightly tapped. […] The total number and average intensity of events over the duration is determined. Total number of taps is analyzed with one-way ANOVA and post-hoc Dunnett's test using JMP statistical software.
A dose-response curve (with doses of 0.3, 1, 3 and 10 pmols, icy) is initially generated with the NK-1 agonist GR73632.
NK-1 antagonists are tested for their ability to attenuate GR73632-induced foot tapping. NK-1 antagonists are administered (po) via oral feeding tube at doses and time points specified in each experiment. […]
NK-1 antagonists are administered at multiple doses (at least 3; one dose per animal) and response to GR73632 is measured. […]

The next assay relates to motion sickness. The assay can be described thus: Clinical study of motion sickness prevention during sea travel. The settings on record: for study participants experiencing vomiting: tradipitant arm 170 mg. Type of assay: in vivo, human. On the procedure: A randomized, double blind, placebo-controlled clinical study of motion sickness is conducted, in which 126 human subjects (“study participants”), each having a prior history of motion sickness, are subjected to sea travel in the Pacific Ocean under varied weather conditions. Study participants are distributed over seven (7) four-hour boat trips off the coast of Los Angeles, California, USA. For each trip, sea conditions and participant self-evaluation of symptoms of motion sickness are recorded. Among the seven trips, three are under “rough” sea conditions, conducive to producing motion sickness with wave heights above one meter. The remaining four trips are made under “calm” conditions, with wave heights less than one meter, and are less likely to produce motion sickness. Under “rough” sea conditions, 72.2% of the placebo treated patients experience vomiting compared to only 26.7% under “calm” conditions. Subjects are randomized 1:1 to receive either tradipitant 170 mg or placebo by mouth in a blinded fashion, prior to travel initiation. Participants report their symptoms at predetermined time intervals of every 30 minutes during the travel period using the Motion Sickness Severity Scale (MSSS) and other assessments. Primary end points of the study include: percentage of participants vomiting, and Motion Sickness Severity Scale (MSSS) Worst score. The MSSS is a 7 point scale ranging from 0 (“no symptoms”) to 6 (“vomiting”). An exploratory analysis is also performed to evaluate the effects of tradipitant under “calm” and “rough” seas. In the study described above in Example 3, further analysis is conducted with respect to study participants' ethnic backgrounds, in particular, whether study participants are Hispanic or non-Hispanic, e.g., white (non-Hispanic), Black or African American (non-Hispanic), American Indian and Alaska Native (non-Hispanic), Asian (non-Hispanic), Native Hawaiian and other Pacific Islander (non-Hispanic), some other race (non-Hispanic), or multi-racial (non-Hispanic). Results are analyzed based on study participants' self-reported ethnic backgrounds.

T1 sequence (Q5DUB1 whole entry): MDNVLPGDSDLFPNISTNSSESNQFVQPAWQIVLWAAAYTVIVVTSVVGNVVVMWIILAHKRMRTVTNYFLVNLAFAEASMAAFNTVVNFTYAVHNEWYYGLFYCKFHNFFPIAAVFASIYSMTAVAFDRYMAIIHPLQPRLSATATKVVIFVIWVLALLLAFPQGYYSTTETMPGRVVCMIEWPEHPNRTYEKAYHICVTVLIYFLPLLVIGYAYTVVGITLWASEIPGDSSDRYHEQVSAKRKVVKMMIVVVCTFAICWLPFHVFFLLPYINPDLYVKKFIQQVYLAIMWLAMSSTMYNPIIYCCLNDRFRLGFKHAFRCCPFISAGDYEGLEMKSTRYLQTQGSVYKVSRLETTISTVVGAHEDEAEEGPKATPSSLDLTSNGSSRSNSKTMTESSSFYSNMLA

With `O=C(c1ccccc1Cl)c1cccnc1-c1nnn(Cc2cc(C(F)(F)F)cc(C(F)(F)F)c2)c1-c1ccncc1` [Tradipitant, {2-[1-(3,5-bistrifluoromethylbenzyl)-5-pyridin-4-yl-1H-[1,2,3]triazol-4-yl]-pyridin-3-yl}-(2-chlorophenyl)-methanone], in assay [1], the “inhibition of binding in panel of 74 other receptors, enzymes, and ion channels” value was no more than 50%. Further, the “time after administration up to which foot-tapping behavior is significantly inhibited” value on NK-1 receptor is “up to 7 hours”. In addition, the “% Vomiting, Difference placebo vs tradipitant” value turned out to be 8.5% with motion sickness (Calm Sea, P-value 0.3123); 22.2% in the assay on motion sickness (ITT, P-value 0.0039); 56.4% with motion sickness (Rough Sea, P-value 0.0009). In addition, the “Worst MSSS, Difference placebo vs tradipitant” value in the assay on motion sickness (Calm Sea, P-value 0.8271) is given as −0.09; in the assay with motion sickness (ITT, P-value 0.2936), 0.35; in the assay on motion sickness (Rough Sea, P-value 0.0235), 1.38. In addition, the “Worst MSSS” value was found to be 3.4 in the assay on motion sickness (Calm Sea, n = 44, 170 mg by mouth, placebo 3.32); 3.40 with motion sickness (Calm Sea, n = 44, 170 mg by mouth, placebo 3.32, listed as tradipitant); 3.40 in the assay with motion sickness (ITT, n = 63, 170 mg by mouth, placebo 3.75); 3.4 in the assay on motion sickness (ITT, n = 63, 170 mg by mouth, placebo 3.75, listed as tradipitant); 3.19 in the assay on motion sickness (Rough Sea, n = 19, 170 mg by mouth, placebo 4.57). Besides, the “% Vomiting” value in the assay on motion sickness (Calm Sea, n = 44, 170 mg by mouth, placebo 26.7%) stood at 18.2%; with motion sickness (Calm Sea, n = 44, 170 mg by mouth, placebo 26.7%, listed as tradipitant), 18.2%; in the assay with motion sickness (ITT, n = 63, 170 mg by mouth, placebo 39.7%), 17.5%; with motion sickness (ITT, n = 63, 170 mg by mouth, placebo 39.7%, listed as tradipitant), 17.5%; with motion sickness (Rough Sea, n = 19, 170 mg by mouth, placebo 72.2%), 15.8%; in the assay with motion sickness (Rough Sea, n = 19, 170 mg by mouth, placebo 72.2%, listed as tradipitant), 15.8%. Further, the “study participants experiencing vomiting” value in the assay with motion sickness (Hispanic participants, placebo 33.3%) is listed as 4.5%; in the assay with motion sickness (non-Hispanic participants, placebo 42.8%) it was 24.4%.
